From article PMC8000724, “Trans-Epithelial Transport, Metabolism, and Biological Activity Assessment of the Multi-Target Lupin Peptide [sequence] (P5) and Its Metabolite [sequence] (P5-Met)” (Nutrients, 2021)
No end group written: not given here.

How the values were obtained:
[1] = biological target: T1, HMGCoAR (catalytic domain) (Homo sapiens, UniProt P04035); experiment: HMGCoAR activity assay; type: biochemical
T1 construct: finally the HMGCoAR (catalytic domain) (2 µL); purchased Sigma-Aldrich
T1 sequence (P04035 340-888 limits assumed): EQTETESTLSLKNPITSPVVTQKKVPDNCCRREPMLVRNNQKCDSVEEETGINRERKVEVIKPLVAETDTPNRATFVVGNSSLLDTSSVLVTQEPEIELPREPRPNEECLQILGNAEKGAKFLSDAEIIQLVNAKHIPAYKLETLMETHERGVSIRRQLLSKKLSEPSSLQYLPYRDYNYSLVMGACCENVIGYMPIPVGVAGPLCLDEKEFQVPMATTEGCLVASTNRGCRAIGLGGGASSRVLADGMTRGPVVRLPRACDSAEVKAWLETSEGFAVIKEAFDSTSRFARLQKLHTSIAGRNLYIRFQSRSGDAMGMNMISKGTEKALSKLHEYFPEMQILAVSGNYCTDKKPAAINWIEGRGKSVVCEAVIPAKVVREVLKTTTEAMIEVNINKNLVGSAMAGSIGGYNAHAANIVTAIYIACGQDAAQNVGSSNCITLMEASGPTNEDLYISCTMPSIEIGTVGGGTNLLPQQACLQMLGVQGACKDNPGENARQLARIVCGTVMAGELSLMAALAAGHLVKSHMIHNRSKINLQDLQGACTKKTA
Experimental: The experiments were carried out following the manufacturer instructions and optimized protocol. The assay buffer, NADPH, substrate solution, and HMGCoAR were provided in the HMGCoAR Assay Kit (Sigma Aldrich SRL, Milan, Italy). The experiments were carried out following the manufacturer instructions at 37 °C. In particular, each reaction (200 µL) was prepared adding the reagents in the following order: 1× assay buffer, a 10–500 µM doses of P5 and P5-met or vehicle (C), the NADPH (4 µL), the substrate solution (12 µL), and finally the HMGCoAR (catalytic domain) (2 µL). Subsequently, the samples were mixed and the absorbance at 340 nm read by the microplate reader Synergy H1 (Winooski, VT, USA) at time 0 and 10 min. The HMGCoAR-dependent oxidation of NADPH and the inhibition properties of peptides were measured by absorbance reduction, which is directly proportional to enzyme activity.

[2] = tested on: differentiated Caco-2 cells (AP membrane peptidases); experiment: Metabolites of P5 produced by Caco-2 cell peptidases, MS analysis of AP solutions; type: in vitro ADME, human; parameters: key to Metabolite of P5 identified in the AP compartment: Mixture / Metabolite of P5 identified in the AP compartment: Alone: x, detected; n.d., not detected; conditions: P5 incubated in mixture with P3 and P7 (500 μM each), Caco-2, end of incubation 120 min
Experimental: (§1) Prior to experiments, the cell monolayer integrity and differentiation were checked by TEER measurement as described in detail above. Peptide trans-epithelial passage was assayed in differentiated Caco-2 cells in transport buffer solution (137 mM NaCl, 5.36 mM KCl, 1.26 mM CaCl2, and 1.1 mM MgCl2, 5.5 mM glucose) according to previously described conditions. In order to reproduce the pH conditions existing in vivo in the small intestinal mucosa, the apical (AP) solutions were maintained at pH 6.0 (buffered with 10 mM morpholinoethane sulfonic acid), and the basolateral (BL)solutions were maintained at pH 7.4 (buffered with 10 mM […]). Prior to transport experiments, cells were washed twice with 500 µL PBS containing Ca^++ and Mg^++. Peptide transportation by mature Caco-2 cells was assayed by loading the AP compartment with P5 alone, in mixture with […] (P3) and […] (P7), and/or P5-met (500 μM) in the AP transport solution (500 µL) and the BL compartment with the BL transport solution (700 µL). The plates were incubated at 37 °C and the BL solutions were collected at different time points (i.e., 15, 30, 60, 90, and 120 min) and replaced with fresh solutions pre-warmed at 37 °C. All BL and AP solutions collected at the end of the transport experiment were stored at −80 °C prior to analysis. Three independent transport experiments were performed, each in duplicate. In order to assess the involvement of transcytotic process in peptides passage, parallel transport experiments were performed in the presence of 500 nM wortmannin in both the AP and BL compartment, over 60 min incubation time.
The medium collected at the end of transport experiments from AP and BL chambers (500 µL and 700 µL, respectively) were freeze-dried and residues were solubilized in HPLC water (100 µL). Samples were desalted with C18 resin ZipTip by using 80% ACN, 0.1% FA as eluent (Millipore Corporation, Bedford, MA, USA). Each sample was lyophilized under speed-vacuum for 5 h at 30°C and re-dissolved in 50 μL (0.1% formic acid), before MS analysis. Purified BL samples were analyzed on a SL IT mass spectrometer interfaced with a HPLC- Chip Cube source (Agilent Technologies, Palo Alto, CA, USA). Data were processed with MSD Trap control 4.2, and Data analysis 4.2 version (Agilent Technologies, Palo Alto, CA, USA). The chromatographic separation was performed using a 1200 HPLC system equipped with a binary pump. […] Specifically, The monitored MRM transitions of P5-met were from the mono-charged precursor ion [M^+H]^+ (m/z 882.43) to product-ions m/z 678.3 and 407.1, respectively. […]

[3] = tested on: differentiated Caco-2 cells; experiment: Trans-epithelial transport across differentiated Caco-2 cell monolayer; type: in vitro ADME, human
Experimental: Human intestinal Caco-2 cells, obtained from INSERM (Paris, France), where cultured according to a published protocol. For differentiation, they were seeded on polycarbonate filters, 12 mm diameter, 0.4 µm pore diameter (Transwell, Corning Inc., Lowell, MA, US) at a 3.5 × 10^5 cells/cm^2 density in complete medium supplemented with 10% FBS in both AP and BL compartments for 2 d to allow the formation of a confluent cell monolayer. Starting from day three after seeding, cells were transferred to FBS-free medium in both compartments, supplemented with ITS (final concentration 10 mg/L insulin (I), 5.5 mg/L transferrin (T), 6.7 μg/L sodium selenite (S); GIBCO-Invitrogen, San Giuliano Milanese, Italy) only in the basolateral (BL) compartment, and allowed to differentiate for 18–21 days with regular medium changes three times weekly.
The transepithelial electrical resistance (TEER) of differentiated Caco-2 cells was measured at 37 °C using the voltmeter apparatus Millicell (Millipore Co., Billerica, MA, USA), immediately before and at the end of the transport experiments. In addition, at the end of transport experiments, cells were incubated from the AP side with 1 mM phenol-red in PBS containing Ca^++ (0.9 mM) and Mg^++ (0.5 mM) for 1 h at 37 °C, to monitor the paracellular permeability of the cell monolayer. The BL solutions were then collected and NaOH (70 µL, 0.1 N) was added before reading the absorbance at 560 nm by a microplate reader Synergy H1 from Biotek (Winooski, VT, USA). Phenol-red passage was quantified using a standard phenol-red curve. Only filters showing TEER values and phenol red passages similar to untreated control cells were considered for peptide transport analysis.
as §1
The medium collected at the end of transport experiments from AP and BL chambers (500 µL and 700 µL, respectively) were freeze-dried and residues were solubilized in HPLC water (100 µL). Samples were desalted with C18 resin ZipTip by using 80% ACN, 0.1% FA as eluent (Millipore Corporation, Bedford, MA, USA). Each sample was lyophilized under speed-vacuum for 5 h at 30°C and re-dissolved in 50 μL (0.1% formic acid), before MS analysis. Purified BL samples were analyzed on a SL IT mass spectrometer interfaced with a HPLC- Chip Cube source (Agilent Technologies, Palo Alto, CA, USA). […]

Compound: CC[C@H](C)C(=O)O[C@H]1C[C@H](O)C=C2C=C[C@H](C)[C@H](CC[C@@H](O)C[C@@H](O)CC(=O)O)[C@H]21 [pravastatin, reference compound]
- Reduction of HMGCoAR enzyme activity ([1]; 1.0 µM, positive control): 82.0%

Compound: ILPKHSDAD [Peptide P5-frag, minor metabolite of P5, loss of the N-terminal leucine]
- Metabolite of P5 identified in the AP compartment: Mixture [2]: x

Compound: LILPKHSDAD [Peptide P5]
- Effect of the transcytosis inhibitor wortmannin on transport across Caco-2 cells ([3]; 500 nM wortmannin in AP and BL compartments, 60 min, HPLC-Chip MS of BL compartment): significantly impairs the transport
- Amount in BL compartment, mixture versus alone ([3]; Caco-2 AP to BL, 2 h, 500 μM): about 3.5 fold
- Transport rate across Caco-2 monolayer ([3]; in mixture with other lupin peptides (P3, P7), Caco-2 AP to BL, 500 μM): 8.9 ± 0.4 ng/(mL × min)
- Amount in the BL compartment at the end of incubation (2 h) ([3]; tested alone, 500 μM in AP, Caco-2 AP to BL, 2 h, conversion of the μg value): 0.271 nmol
- Amount in the BL compartment at the end of incubation (2 h) ([3]; tested alone, 500 μM in AP, Caco-2 AP to BL, AP pH 6.0 / BL pH 7.4, 37 °C, 2 h, HPLC-Chip MS, mean ± SD): 0.3 ± 0.02 µg
- Amount in the BL compartment after 60 min ([3]; tested alone, 500 μM in AP, Caco-2 AP to BL, AP pH 6.0 / BL pH 7.4, 37 °C, HPLC-Chip MS, mean ± SD): 0.20 ± 0.02 µg
- Transport rate across Caco-2 monolayer ([3]; tested alone, Caco-2 AP to BL, 500 μM): 1.8 ± 0.3 ng/(mL × min)
- Amount in the BL compartment at the end of incubation (2 h) ([3]; tested in mixture with P3 and P7, each 500 μM in AP, Caco-2 AP to BL, 2 h, conversion of the μg value): 0.99 nmol
- Amount in the BL compartment at the end of incubation (2 h) ([3]; tested in mixture with P3 and P7, each 500 μM in AP, Caco-2 AP to BL, AP pH 6.0 / BL pH 7.4, 37 °C, 2 h, HPLC-Chip MS, mean ± SD): 1.1 ± 0.2 µg
- IC50 ([1]; 10-500 µM peptide, 37 °C, NADPH absorbance 340 nm at 0 and 10 min): 147 µM
